Data taken from ChEMBL document CHEMBL1287715, “Discovery of N-benzyl-N'-(4-pipyridinyl)urea CCR5 antagonists as anti-HIV-1 agents (I): optimization of the amine portion” (Bioorg Med Chem Lett, 2010).

Assays:
HOS = assay: Cytotoxicity against HOS cells upto 1 uM by celltiter glo assay; format: cell-based; details: human
[1] = Cytotoxicity against peripheral blood lymphocyte cells upto 1 uM by celltiter glo assay; format: cell-based; details: human

Compound | Activity (HOS) | Activity [1]
C=CCN(C(=O)OCc1ccc(S(C)(=O)=O)cc1)C1CCN(CCC2(c3cccc(F)c3)CCN(C(=O)c3cc(S(=O)(=O)NC(C)(C)C)c(F)cc3Cl)CC2)CC1 | Non-toxic | Non-toxic
C=CCN(C(=O)NCc1ccc(C(F)(F)F)cc1)C1CCN(CCC2(c3cccc(F)c3)CCN(C(=O)c3cc(S(=O)(=O)NC(C)(C)C)c(F)cc3Cl)CC2)CC1 | Non-toxic | Non-toxic
C=CCN(C(=O)NCc1ccc(C(=O)OC)cc1)C1CCN(CCC2(c3cccc(F)c3)CCN(C(=O)c3cc(S(=O)(=O)NC(C)(C)C)c(F)cc3Cl)CC2)CC1 | Non-toxic | Non-toxic
C=CCN(C(=O)Nc1ccc(F)cc1)C1CCN(CCC2(c3cccc(F)c3)CCN(C(=O)c3cc(S(=O)(=O)NC(C)(C)C)c(F)cc3Cl)CC2)CC1 | Non-toxic | Non-toxic
C=CCN(C(=O)Cc1ccc(OC(F)(F)F)cc1)C1CCN(CCC2(c3cccc(F)c3)CCN(C(=O)c3cc(S(=O)(=O)NC(C)(C)C)c(F)cc3Cl)CC2)CC1 | Non-toxic | Non-toxic
C=CCN(C(=O)Cc1ccc(S(C)(=O)=O)cc1)C1CCN(CCC2(c3cccc(F)c3)CCN(C(=O)c3cc(S(=O)(=O)NC(C)(C)C)c(F)cc3Cl)CC2)CC1 | Non-toxic | Non-toxic
C=CCN(C(=O)Cc1ccc(C(F)(F)F)cc1)C1CCN(CCC2(c3cccc(F)c3)CCN(C(=O)c3cc(S(=O)(=O)NC(C)(C)C)c(F)cc3Cl)CC2)CC1 | Non-toxic | Non-toxic
C=CCN(C(=O)OCc1ccc(C(F)(F)F)cc1)C1CCN(CCC2(c3cccc(F)c3)CCN(C(=O)c3cc(S(=O)(=O)NC(C)(C)C)c(F)cc3Cl)CC2)CC1 | Non-toxic | Non-toxic
C=CCN(C(=O)Nc1ccc(S(C)(=O)=O)cc1)C1CCN(CCC2(c3cccc(F)c3)CCN(C(=O)c3cc(S(=O)(=O)NC(C)(C)C)c(F)cc3Cl)CC2)CC1 | Non-toxic | Non-toxic
C=CCN(C(=O)Nc1ccc(C#N)cc1)C1CCN(CCC2(c3cccc(F)c3)CCN(C(=O)c3cc(S(=O)(=O)NC(C)(C)C)c(F)cc3Cl)CC2)CC1 | Non-toxic | Non-toxic
C=CCN(C(=O)Cc1ccc(C(N)=O)cc1)C1CCN(CCC2(c3cccc(F)c3)CCN(C(=O)c3cc(S(=O)(=O)NC(C)(C)C)c(F)cc3Cl)CC2)CC1 | Non-toxic | Non-toxic
C=CCN(C(=O)Nc1ccc(OC(C)=O)cc1)C1CCN(CCC2(c3cccc(F)c3)CCN(C(=O)c3cc(S(=O)(=O)NC(C)(C)C)c(F)cc3Cl)CC2)CC1 | Non-toxic | Non-toxic
C=CCN(C(=O)Cc1ccc(F)cc1)C1CCN(CCC2(c3cccc(F)c3)CCN(C(=O)c3cc(S(=O)(=O)NC(C)(C)C)c(F)cc3Cl)CC2)CC1 | Non-toxic | Non-toxic
C=CCN(C(=O)NCc1ccc(C#N)cc1)C1CCN(CCC2(c3cccc(F)c3)CCN(C(=O)c3cc(S(=O)(=O)NC(C)(C)C)c(F)cc3Cl)CC2)CC1 | Non-toxic | Non-toxic
C=CCN(C(=O)OCc1ccc(C(=O)OC)cc1)C1CCN(CCC2(c3cccc(F)c3)CCN(C(=O)c3cc(S(=O)(=O)NC(C)(C)C)c(F)cc3Cl)CC2)CC1 | Non-toxic | Non-toxic
C=CCN(C(=O)NCc1ccc(C(N)=O)cc1)C1CCN(CCC2(c3cccc(F)c3)CCN(C(=O)c3cc(S(=O)(=O)NC(C)(C)C)c(F)cc3Cl)CC2)CC1 | Non-toxic | Non-toxic
C=CCN(C(=O)OCc1ccc(OC(F)(F)F)cc1)C1CCN(CCC2(c3cccc(F)c3)CCN(C(=O)c3cc(S(=O)(=O)NC(C)(C)C)c(F)cc3Cl)CC2)CC1 | Non-toxic | Non-toxic
C=CCN(C(=O)NCc1ccc(F)cc1)C1CCN(CCC2(c3cccc(F)c3)CCN(C(=O)c3cc(S(=O)(=O)NC(C)(C)C)c(F)cc3Cl)CC2)CC1 | Non-toxic | Non-toxic
C=CCN(C(=O)OCc1ccc(C#N)cc1)C1CCN(CCC2(c3cccc(F)c3)CCN(C(=O)c3cc(S(=O)(=O)NC(C)(C)C)c(F)cc3Cl)CC2)CC1 | Non-toxic | Non-toxic
C=CCN(C(=O)Nc1ccc(C(F)(F)F)cc1)C1CCN(CCC2(c3cccc(F)c3)CCN(C(=O)c3cc(S(=O)(=O)NC(C)(C)C)c(F)cc3Cl)CC2)CC1 | Non-toxic | Non-toxic
C=CCN(C(=O)OCc1ccc(F)cc1)C1CCN(CCC2(c3cccc(F)c3)CCN(C(=O)c3cc(S(=O)(=O)NC(C)(C)C)c(F)cc3Cl)CC2)CC1 | Non-toxic | Non-toxic
